The numbers were not newly measured in article PMC7998273, “Zein Nanoparticles Improve the Oral Bioavailability of Curcumin in Wistar Rats” (Pharmaceutics, 2021), which cites them from elsewhere.

Details of the data set: method as in PMID 17400527. Conditions: orally administered.

For the compound `COc1cc(/C=C/C(=O)CC(=O)/C=C/c2ccc(O)c(OC)c2)ccc1O` [CC, curcumin], the Oral bioavailability entry was “ca. 1%”.
